According to PubChem BioAssay AID2060486 (Molecular Pharmacology Branch, DTP, NCI, 2025):

Tested on: IGROV1 complex spheroids (HUVEC, MSC), viability % test/control
Experiment: Anticancer human tumor IGROV1 cell line growth inhibition [GQUAD];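 note: spheroids exposed to compounds for 7 days before readout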;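 for viability, T/C: 100% = DMSO vehicle control viability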
Details: for IC50: curve of first compound; for viability, T/C: stronger effect = lower value
Method in brief: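 Tumor cells were grown as complex spheroids with HUVEC endothelial cells and mesenchymal stem cells as stroma. G-quadruplex stabilizers were combined with targeted agents over half-log dilutions from near the clinical Cmax, or from 10 microM.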

[1] = second compound 0.0316 µM, first compound 0.0316 µM
[2] = second compound 0.0316 µM, first compound 0.1 µM
[3] = second compound 0.0316 µM, first compound 0.316 µM
[4] = second compound 0.0316 µM, first compound 1 µM
[5] = second compound 0.0316 µM, first compound 3.16 µM
[6] = second compound 0.0316 µM, first compound 10 µM
[7] = second compound 0.1 µM, first compound 0.0316 µM
[8] = second compound 0.1 µM, first compound 0.1 µM
[9] = second compound 0.1 µM, first compound 0.316 µM
[10] = second compound 0.1 µM, first compound 1 µM
[11] = second compound 0.1 µM, first compound 3.16 µM
[12] = second compound 0.1 µM, first compound 10 µM
[13] = second compound 0.316 µM, first compound 0.0316 µM
[14] = second compound 0.316 µM, first compound 0.1 µM
[15] = second compound 0.316 µM, first compound 0.316 µM
[16] = second compound 0.316 µM, first compound 1 µM
[17] = second compound 0.316 µM, first compound 3.16 µM
[18] = second compound 0.316 µM, first compound 10 µM
[19] = second compound 1 µM, first compound 0.0316 µM
[20] = second compound 1 µM, first compound 0.1 µM
[21] = second compound 1 µM, first compound 0.316 µM
[22] = second compound 1 µM, first compound 1 µM
[23] = second compound 1 µM, first compound 3.16 µM
[24] = second compound 1 µM, first compound 10 µM
[25] = second compound 3.16 µM, first compound 0.0316 µM
[26] = second compound 3.16 µM, first compound 0.1 µM
[27] = second compound 3.16 µM, first compound 0.316 µM
[28] = second compound 3.16 µM, first compound 1 µM
[29] = second compound 3.16 µM, first compound 3.16 µM
[30] = second compound 3.16 µM, first compound 10 µM
[31] = second compound 10 µM, first compound 0.0316 µM
[32] = second compound 10 µM, first compound 0.1 µM
[33] = second compound 10 µM, first compound 0.316 µM
[34] = second compound 10 µM, first compound 1 µM
[35] = second compound 10 µM, first compound 3.16 µM
[36] = second compound 10 µM, first compound 10 µM

Which IC50 (second compound 0.0316 µM) does the source give for `CC1COCCN1c1cc(C2(S(C)(=N)=O)CC2)nc(-c2ccnc3[nH]ccc23)n1` (centres undefined) + Cc1[nH]c2ccc(F)cc2c1-c1nc2c3cccnc3c3ncccc3c2[nH]1 here?
The IC50 was 986 nM.

What about the IC50 (second compound 0.1 µM) of the same molecule?
The IC50 was 884 nM.

And the IC50 (second compound 0.316 µM)?
Its IC50 is 426 nM.

What about the IC50 (second compound 1 µM) of the same molecule?
The IC50 was less than 31.6 nM.

What about the IC50 (second compound 3.16 µM) of the same molecule?
Its IC50 is less than 31.6 nM.

And the IC50 (second compound 10 µM)?
The IC50 was less than 31.6 nM.

And the viability, T/C [1]?
Its viability, T/C is 80%.

And the viability, T/C [2]?
The viability, T/C was 86.7%.

What about the viability, T/C [3] of the same molecule?
Its viability, T/C is 80.4%.

And the viability, T/C [4]?
Its viability, T/C is 49.2%.

And the viability, T/C [5]?
The viability, T/C was 14.5%.

And the viability, T/C [6]?
Its viability, T/C is 7.71%.

And the viability, T/C [7]?
Its viability, T/C is 87.4%.

What about the viability, T/C [8] of the same molecule?
The viability, T/C was 98.1%.

What about the viability, T/C [9] of the same molecule?
Its viability, T/C is 74.4%.

And the viability, T/C [10]?
Its viability, T/C is 48.9%.

What about the viability, T/C [11] of the same molecule?
Its viability, T/C is 13.7%.

And the viability, T/C [12]?
The viability, T/C was 6.84%.

What about the viability, T/C [13] of the same molecule?
The viability, T/C was 81.5%.

And the viability, T/C [14]?
The viability, T/C was 74.3%.

And the viability, T/C [15]?
The viability, T/C was 60.9%.

And the viability, T/C [16]?
The viability, T/C was 21.1%.

What about the viability, T/C [17] of the same molecule?
The viability, T/C was 7.66%.

What about the viability, T/C [18] of the same molecule?
The viability, T/C was 3.74%.

And the viability, T/C [19]?
The viability, T/C was 4.68%.

And the viability, T/C [20]?
The viability, T/C was 4.27%.

And the viability, T/C [21]?
The viability, T/C was 4.11%.

What about the viability, T/C [22] of the same molecule?
The viability, T/C was 3.67%.

What about the viability, T/C [23] of the same molecule?
Its viability, T/C is 4.03%.

And the viability, T/C [24]?
The viability, T/C was 2.64%.

What about the viability, T/C [25] of the same molecule?
Its viability, T/C is 4.14%.

What about the viability, T/C [26] of the same molecule?
Its viability, T/C is 5.15%.

And the viability, T/C [27]?
Its viability, T/C is 4.92%.

What about the viability, T/C [28] of the same molecule?
Its viability, T/C is 4.78%.

And the viability, T/C [29]?
The viability, T/C was 3.97%.

What about the viability, T/C [30] of the same molecule?
The viability, T/C was 2.94%.

What about the viability, T/C [31] of the same molecule?
The viability, T/C was 3.9%.

And the viability, T/C [32]?
Its viability, T/C is 4.76%.

What about the viability, T/C [33] of the same molecule?
The viability, T/C was 5.04%.

And the viability, T/C [34]?
The viability, T/C was 3.7%.

What about the viability, T/C [35] of the same molecule?
The viability, T/C was 3.55%.

And the viability, T/C [36]?
Its viability, T/C is 2.63%.

What does the source list for `COc1cccc2c1C(=O)c1c(O)c3c(c(O)c1C2=O)CC(O)(C(=O)CO)CC3OC1CC(N)C(O)C(C)O1` (centres undefined) + Cc1[nH]c2ccc(F)cc2c1-c1nc2c3cccnc3c3ncccc3c2[nH]1?
IC50 (second compound 0.0316 µM): 58.1 nM; IC50 (second compound 0.1 µM): 45.9 nM; IC50 (second compound 0.316 µM): < 31.6 nM; IC50 (second compound 1 µM): < 31.6 nM; IC50 (second compound 3.16 µM): < 31.6 nM; IC50 (second compound 10 µM): < 31.6 nM; viability, T/C [1]: 77.6%; viability, T/C [2]: 24.5%; viability, T/C [3]: 9.18%; viability, T/C [4]: 3.35%; viability, T/C [5]: 0.15%; viability, T/C [6]: 0.53%; viability, T/C [7]: 62.3%; viability, T/C [8]: 23.6%; viability, T/C [9]: 10.5%; viability, T/C [10]: 4.39%; viability, T/C [11]: 0.11%; viability, T/C [12]: 0.5%; viability, T/C [13]: 34.7%; viability, T/C [14]: 21.4%; viability, T/C [15]: 7.11%; viability, T/C [16]: 4.13%; viability, T/C [17]: 0.18%; viability, T/C [18]: 0.43%; viability, T/C [19]: 4.23%; viability, T/C [20]: 5.09%; viability, T/C [21]: 3.51%; viability, T/C [22]: 1.63%; viability, T/C [23]: 0.1%; viability, T/C [24]: 0.52%; viability, T/C [25]: 3.48%; viability, T/C [26]: 5.09%; viability, T/C [27]: 3.34%; viability, T/C [28]: 1.41%; viability, T/C [29]: 0.08%; viability, T/C [30]: 0.36%; viability, T/C [31]: 4.02%; viability, T/C [32]: 3.99%; viability, T/C [33]: 2.84%; viability, T/C [34]: 1.32%; viability, T/C [35]: 0.18%; viability, T/C [36]: 0.42%
